The numbers were not newly measured in patent US20150127309A1, “Method To Translate Biodynamic Spectrograms Into High-Content Information” (Purdue Research Foundation, priority 2013, published 2015), which cites them from elsewhere.

The test system of data set [1] is three Raf isoforms. To be noted: in serum; refs [75-77].
For data set [2] the following is noted: ref [78].

On to `CCCS(=O)(=O)Nc1ccc(F)c(C(=O)c2c[nH]c3ncc(-c4ccc(Cl)cc4)cc23)c1F` [PLX4032], for which the “activity against Raf isoforms” value in data set [1] was “active against three Raf isoforms at nanomolar concentrations”. Besides, the toxicity result in data set [2] is listed as “minimal toxicity”. Besides, the tolerated serum levels entry in data set [2] (serum) is recorded as “up to 50 μM”.
